Data published in patent US10519207B2, “Compositions and methods for treating opioid tolerance” (priority 2015, dated 2019).

Tests used:
EAAC1 mRNA = experiment: In situ hybridization of neuronal EAAC1 mRNA in caudal vlPAG; assay type: in vivo, rat
IL-10 mRNA = experiment: qPCR of IL-10 mRNA in vlPAG; assay type: in vivo, rat; conditions: chronic morphine with or without XPro1595
Procedure: (§1) Gene expression is reported as the ratio of the gene of interest to Gapdh, and are normalized to the Vehicle+Saline condition. Changes in mRNA between groups were assessed using an ANOVA on ranks (Kruskal-Wallis), and Mann Whitney U post-hoc comparisons (SPSS). Data are expressed as median; p<0.05 was considered significant.

IL-6 mRNA = experiment: qPCR of IL-6 mRNA in vlPAG; assay type: in vivo, rat; conditions: chronic morphine with or without XPro1595
Procedure: as §1

TNF mRNA = experiment: qPCR of TNF mRNA in vlPAG; assay type: in vivo, rat; conditions: chronic morphine with or without XPro1595
Procedure: as §1

TNF = conditions: morphine tolerant animals; cited from earlier work
Chain of TNF (P16599 80-235 limits assumed): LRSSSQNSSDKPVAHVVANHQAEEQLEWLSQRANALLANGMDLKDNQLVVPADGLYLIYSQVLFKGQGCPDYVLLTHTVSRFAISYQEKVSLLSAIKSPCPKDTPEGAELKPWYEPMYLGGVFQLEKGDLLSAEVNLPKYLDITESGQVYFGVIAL

solTNF = target: T1, solTNF (Mus musculus, UniProt P06804); conditions: systemic delivery; cited from earlier work
T1 construct: There are two active forms of TNF, soluble-TNF (solTNF) and transmembrane-TNF (tmTNF); host or cells: endogenous TNF of EAE animals
T1 sequence (P06804 80-235 limits assumed): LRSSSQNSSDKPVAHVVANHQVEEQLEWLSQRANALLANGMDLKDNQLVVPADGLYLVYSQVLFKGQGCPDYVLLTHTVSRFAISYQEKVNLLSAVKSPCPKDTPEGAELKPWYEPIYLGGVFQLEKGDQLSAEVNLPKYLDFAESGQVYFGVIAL

soluble TNF (solTNF) = target: T2, soluble TNF (solTNF) (Rattus norvegicus, UniProt P16599); assay type: in vivo; conditions: 24 and 72 hours after intra-PAG administration
T2 construct: soluble TNF which is formed after cleavage of tmTNF by ADAM17/TNF-αlpha Converting Enzyme (TACE); from tissue; host or cells: living rat, ventrolateral periaqueductal gray (vlPAG) / CNS
T2 sequence (P16599 80-235): as the sequence (P16599 80-235 limits assumed) above
Procedure: Male Sprague Dawley rats (250-350 g; Charles River; MA) were pair-housed on a 12:12 hour light:dark cycle (lights on at 7:00 am) with ad libitum access to food and water. The Institutional Animal Care and Use Committee at Georgia State University approved all studies.
Rats were implanted with bilateral cannula aimed at the ventrolateral PAG (vlPAG) and received bilateral infusions of lenti-DN-TNF or lenti-GFP while under surgical anesthesia.

Q: What does the source list for `CN1CC[C@]23c4c5ccc(O)c4O[C@H]2[C@@H](O)C=C[C@H]3[C@H]1C5` [morphine]?
A: vlPAG EAAC1 mRNA expression (EAAC1 mRNA; systemic morphine for 3 days): No significant effect; vlPAG IL-10 mRNA (IL-10 mRNA): No significant change; vlPAG IL-6 mRNA (IL-6 mRNA): No significant change; vlPAG TNF gene expression (TNF mRNA): not statistically significant

Q: Which “effect on acute morphine inhibition of tail flick reflex” value (TNF) does the source give for etanercept here?
A: restores the ability of morphine to acutely inhibit tail flick reflex

Q: What about the “outcome in EAE” value (solTNF) of the same molecule?
A: neither therapeutic nor neuroprotective

Q: For lipopolysaccharide [LPS], which “vlPAG EAAC1 mRNA” value (EAAC1 mRNA; chronic vlPAG microinfusions of LPS) is on record?
A: did not alter

Q: And the “baseline paw withdrawal latencies” value (soluble TNF (solTNF))?
A: no effect
